Laboratory results taken from US20210084900A1, “Substituted 5-(haloalkyl)-5-hydroxy-isoxazoles for Combating Phytopathogenic Fungi” (BASF SE, priority 2017, published 2021).

System: Phakopsora pachyrhizi
Experiment: Protective control of soy bean rust on soy beans, inoculation 1 day after spraying (glass house trial 2)
Format: in vivo
Conditions: 600 ppm, protective (1 day), untreated plants 100% diseased leaf area
Description: (§1) Spray solutions were prepared in several steps. A mixture was prepared of acetone and/or dimethylsulfoxide and the wetting agent/emulsifier Wettol, which is based on ethoxylated alkylphenoles, in a relation (volume) solvent-emulsifier of 99 to 1 was added to 25 mg of the compound to give a total of 5 ml. Water was then added to a total volume of 100 ml. This stock solution was diluted with the described solvent-emulsifier-water mixture to the given concentration.
2. Protective Control of Soy Bean Rust on Soy Beans Caused by Phakopsora pachyrhizi
Leaves of pot-grown soy bean seedlings were sprayed to run-off with an aqueous suspension, containing the concentration of active ingredient or their mixture as described below. The plants were allowed to air-dry. The trial plants were cultivated for 1 day in a greenhouse chamber at 23 to 27° C. and a relative humidity between 60 and 80%.Then the plants were inoculated with spores of Phakopsora pachyrhizi. To ensure the success the artificial inoculation, the plants were transferred to a humid chamber with a relative humidity of about 95% and 20 to 24° C. for 24 hours. The trial plants were cultivated for fourteen days in a greenhouse chamber at 23 to 27° C. and a relative humidity between 60 and 80%. The extent of fungal attack on the leaves was visually assessed as % diseased leaf area.

**Q.** With `CNC(=O)c1ccc(C2=NOC(OC(=O)C3CC3)(C(F)(F)F)C2)cc1` (centres unmarked) [Ex-42] as the molecule, how does the diseased leaf area read?
**A.** 0%

**Q.** Which diseased leaf area does the source give for `CC(=O)OC1(C(F)(F)F)CC(c2ccc(CNC(=O)C3CC3)cc2)=NO1` (centres unmarked) [Ex-18] here?
**A.** 0%

**Q.** With `COC1(C(F)(F)F)CC(c2ccc(CN(C)C(=O)C3CC3)cc2)=NO1` (centres unmarked) [Ex-13] as the molecule, how does the diseased leaf area read?
**A.** 0%

**Q.** Which diseased leaf area does the source give for `O=C(Nc1ccccc1)c1ccc(C2=NOC(OC(=O)C3CCCO3)(C(F)(F)F)C2)cc1` (centres unmarked) [Ex-28] here?
**A.** 0%

**Q.** With `CN(C(=O)c1ccc(C2=NOC(O)(C(F)(F)F)C2)cc1)c1ccccc1` (centres unmarked) [Ex-2] as the molecule, how does the diseased leaf area read?
**A.** 0%

**Q.** With `CC(C)CC(=O)OCOC1(C(F)(F)F)CC(c2ccc(C(=O)Nc3ccccc3)cc2)=NO1` (centres unmarked) [Ex-40] as the molecule, how does the diseased leaf area read?
**A.** 0%

**Q.** Which diseased leaf area does the source give for `CCOCC(=O)OC1(C(F)(F)F)CC(c2ccc(C(=O)Nc3ccccc3)cc2)=NO1` (centres unmarked) [Ex-30] here?
**A.** 0%

**Q.** For `CN(Cc1ccc(C2=NOC(O[Si](C)(C)C)(C(F)(F)F)C2)cc1)C(=O)C1CC1` (centres unmarked) [Ex-14], which diseased leaf area is on record?
**A.** 0%

**Q.** For `COC1(C(F)(F)F)CC(c2ccc(CNC(=O)C3CC3)cc2)=NO1` (centres unmarked) [Ex-19], which diseased leaf area is on record?
**A.** 0%

**Q.** Which diseased leaf area does the source give for `CC(=O)OC1(C(F)(F)F)CC(c2ccc(CN(C)C(=O)C3CC3)cc2)=NO1` (centres unmarked) [Ex-15] here?
**A.** 0%

System: not given
Experiment: not given
Conditions: not given

**Q.** With `O=C(Nc1ccccc1)c1ccc(C2=NOC(O)(C(F)(F)F)C2)cc1` (centres unmarked) [Ex-7, 4-[5-Hydroxy-5-(trifluoromethyl)-4H-isoxazol-3-yl]-N-phenyl-benzamide] as the molecule, how does the melting point read?
**A.** 217 °C

**Q.** For `O=C(NCc1ccc(C2=NOC(O)(C(F)(F)F)C2)cc1)C1CC1` (centres unmarked) [Ex-4, N-[[4-[5-hydroxy-5-(trifluoromethyl)-4H-isoxazol-3-yl]phenyl]methyl]cyclopropanecarboxamide], which melting point is on record?
**A.** 207 °C

System: Sclerotinia sclerotiorum
Experiment: Preventative fungicidal control of rape stem rot on soy beans (glass house trial 5)
Format: in vivo
Conditions: 300 ppm, soy bean, untreated plants 90% diseased leaf area
Description: as §1
5. Preventative Fungicidal Control of Rape Stem Rot on Soy Beans Caused by (Sclerotinia scierotiorum
Young seedlings of soy beans were grown in pots. These plants were sprayed to run-off with an aqueous suspension, containing the concentration of active ingredient or mixture mentioned in the table below. The next day the treated plants were inoculated: Rye and millet grains were infected with Sclerotinia sclerotiorum. After the infection the grains were air dried for a week. The grains were powdered with a mixer. A small amount of powder was brought onto the soy bean (leaves). Then the trial plants were cultivated for 7 days in a greenhouse chamber at 23° C. and a relative humidity between 80 an 85%. The extent of fungal attack on the leaves was visually assessed with a classification method: 0, 33, 50, 67 and 100% disease of leaf area and stem.

**Q.** For `CC(=O)OC1(C(F)(F)F)CC(c2ccc(CNC(=O)C3CC3)cc2)=NO1` (centres unmarked) [Ex-18], which diseased leaf area is on record?
**A.** 0%

**Q.** Which diseased leaf area does the source give for `O=C(Nc1ccccc1)c1ccc(C2=NOC(OC(=O)C3CCCO3)(C(F)(F)F)C2)cc1` (centres unmarked) [Ex-28] here?
**A.** 0%

**Q.** With `CN(C(=O)c1ccc(C2=NOC(O)(C(F)(F)F)C2)cc1)c1ccccc1` (centres unmarked) [Ex-2] as the molecule, how does the diseased leaf area read?
**A.** 0%

**Q.** With `CCOCC(=O)OC1(C(F)(F)F)CC(c2ccc(C(=O)Nc3ccccc3)cc2)=NO1` (centres unmarked) [Ex-30] as the molecule, how does the diseased leaf area read?
**A.** 0%

**Q.** With `O=C(Nc1ccccc1)c1ccc(C2=NOC(OC(=O)N3CCCC3)(C(F)(F)F)C2)cc1` (centres unmarked) [Ex-26] as the molecule, how does the diseased leaf area read?
**A.** 0%

**Q.** With `CC(=O)OC1(C(F)(F)F)CC(c2ccc(CN(C)C(=O)C3CC3)cc2)=NO1` (centres unmarked) [Ex-15] as the molecule, how does the diseased leaf area read?
**A.** 0%

**Q.** For `O=C(Nc1ccccc1)c1ccc(C2=NOC(OC(=O)N3CCOCC3)(C(F)(F)F)C2)cc1` (centres unmarked) [Ex-27], which diseased leaf area is on record?
**A.** 0%

System: Puccinia recondita
Experiment: Preventative control of brown rust on wheat (glass house trial 6)
Format: in vivo
Conditions: 300 ppm, preventative (inoculation 7 days after spraying), untreated plants 100% diseased leaf area
Description: as §1
6. Preventative Control of Brown Rust on Wheat Caused by Puccinia recondita
The first two developed leaves of pot-grown wheat seedling were sprayed to run-off with an aqueous suspension, containing the concentration of active ingredient or their mixture as described below. Seven days later the plants were inoculated with spores of Puccinia recondita. To ensure the success the artificial inoculation, the plants were transferred to a humid chamber without light and a relative humidity of 95 to 99% and 20 to 24° C. for 24 hours. Then the trial plants were cultivated for 6 days in a greenhouse chamber at 20 to 24° C. and a relative humidity between 65 and 70%. The extent of fungal attack on the leaves was visually assessed as % diseased leaf area.

**Q.** For `CC(=O)OC1(C(F)(F)F)CC(c2ccc(CN(C)C(=O)C3CC3)cc2)=NO1` (centres unmarked) [Ex-15], which diseased leaf area is on record?
**A.** 12%
